Values quoted from earlier work as cited in US20150338392A1, “Sterile and instantly dissolvable drug membrane and method thereof for testing drug sensitivity of antineoplastic drugs” (priority 2013, published 2015).

Columns and labels:
[1] = test system: non-small cell lung cancer; settings: clinical, background statement
invasive breast cancer = settings: clinical, background statement

| Compound | patients who receive no obvious effect [1] | invasive breast cancer patients who are not sensitive to the drug (invasive breast cancer) |
| --- | --- | --- |
| Nc1ccn([C@@H]2O[C@H](CO)[C@@H](O)C2(F)F)c(=O)n1 [Gemzar] | more than 60% | – |
| COc1cccc2c1C(=O)c1c(O)c3c(c(O)c1C2=O)C[C@@](O)(C(=O)CO)C[C@@H]3O[C@H]1C[C@H](N)[C@H](O)[C@H](C)O1 [doxorubicin] | – | 50% |
